Measurements reported in the NIST ThermoML archive (doi:10.1016/j.jct.2014.06.030).
Numbers after ± are expanded uncertainties.

Settings: 101.33 kPa, Liquid; for speed of sound: Sing-around technique in a fixed-path interferometer; for mass density: Vibrating tube method

speed of sound (298.15 K) | mass density (298.15 K) | speed of sound (303.15 K) | mass density (303.15 K) | speed of sound (308.15 K) | mass density (308.15 K) | Compound
1298.7 ± 1.4 m/s | 1077.3 ± 1 kg/m3 | 1280.7 ± 1.4 m/s | 1072.5 ± 1 kg/m3 | 1262.7 ± 1.4 m/s | 1067.6 ± 1 kg/m3 | Cc1ccccc1Cl [2-chlorotoluene]
1431.6 ± 1.3 m/s | 999 ± 1 kg/m3 | 1417.4 ± 1.3 m/s | 994.65 ± 1 kg/m3 | 1402.2 ± 1.3 m/s | 990.3 ± 1 kg/m3 | CNC=O [N-methylformamide]
1253.6 ± 1.2 m/s | 773.94 ± 1 kg/m3 | 1229.1 ± 1.2 m/s | 769.21 ± 1 kg/m3 | 1205.1 ± 1.2 m/s | 764.45 ± 1 kg/m3 | C1CCCCC1 [cyclohexane]
1458.5 ± 1.2 m/s | 944.6 ± 1 kg/m3 | 1440.2 ± 1.2 m/s | 939.83 ± 1 kg/m3 | 1420.8 ± 1.2 m/s | 935.05 ± 1 kg/m3 | CN(C)C=O [dimethylformamide]
1269.8 ± 1.2 m/s | 879.13 ± 1 kg/m3 | 1246.8 ± 1.2 m/s | 873.99 ± 1 kg/m3 | 1224.4 ± 1.2 m/s | 868.83 ± 1 kg/m3 | C1CCOCC1 [tetrahydropyran]
